Measurements published in patent publication US9427456B2, “Peptide therapy for increasing platelet levels” (Biokine Therapeutics Ltd., priority 2009, dated 2016).
Entries after “also recorded” stand apart in the source; their conditions may differ.

Tests used:
[1] = system: blood platelets; assay: Blood platelet counts in healthy mice after s.c. injection; assay type: in vivo, C57BL/6 mice; conditions: for Platelets (×10^3): blood at day 5, s.c., 4F-benzoyl-TN14003 100 ug/mouse (5 mg/Kg) once a day for 5 days, TPO 0.5 ug/mouse 3 times once a day (days 3-5 in combination); for % increase (platelet counts): versus PBS control, day 5, same regimens as platelet counts
Protocol: Female C57BL/6 mice (7-8 weeks old) were purchased from Harlan Israel and maintained under specific pathogen-free conditions at the Hebrew University Animal Facility (Jerusalem, Israel).
(§1) 4F-benzoyl-TN14003 and Thrombopoietin were reconstituted in PBS at various concentrations. Mice were injected subcutaneously in a total volume of 200 μl. 4F-benzoyl-TN14003 (100 ug/mouse, 5 mg/Kg) was injected for 5 days, once a day and at day 5 blood was collected and tested for platelets counts and hematopoietic colonies were tested in the bone marrow. Thrombopoietin was injected 3 times once a day, at (0.5 ug/mouse), and blood was collected and tested for platelets counts and hematopoietic colonies were tested in the bone marrow at day 5. In another group 4F-benzoyl-TN14003 (100 ug/mouse) was injected for 5 days, once a day and at days 3, 4 and 5 mice were further injected with Thrombopoietin (namely 3 times once a day, at 0.5 ug/mouse). Blood was collected and tested for platelets counts and hematopoietic colonies were tested in the bone marrow at day 5. Control mice were injected with PBS at the appropriate volume and blood was collected and tested for platelets counts and hematopoietic colonies in the bone marrow at day 5.
In the experiments described in FIG. 2, mice were injected subcutaneously with 4F-benzoyl-TN14003 at a dose of 5 mg/kg, administered either as a once daily injection or divided into two doses administered b.i.d. Blood platelet levels were measured 1, 2 or 3 days later.
In FIG. 3, “Male control” and “Female control” indicate PBS-treated male and female mice, respectively; “Male+4FB-T140” and “Female+4FB-T140” indicate male or female mice treated with 4F-benzoyl-TN14003 (5 mg/kg)

[2] = system: hematopoietic precursor cells in the bone marrow; assay: Hematopoietic progenitor cells (HPCs) colony-forming cell assay, bone marrow of treated mice; assay type: in vivo, C57BL/6 mice; conditions: bone marrow at day 5; colonies scored after seven days of culture; same regimens as Table 2
Protocol: as §1
In order to evaluate the number of progenitor cells in the Bone marrow, a colony-forming cell assay was used for the production of hematopoietic colonies following treatments. […] Seven days later, typical colonies were visually scored by morphologic criteria using a light microscope.

[3] = system: blood platelets; assay: Chemotherapy (5FU)-induced thrombocytopenia model in mice; assay type: in vivo; conditions: for Levels of platelets in blood before and after 5FU: 5FU 150 mg/kg i.p. day 0, peptide 5 mg/Kg s.c. daily 5 days before and from day 1 after 5FU, G-CSF 5 μg/mouse daily from day 1, TPO 0.5 μg/mouse 3 days before 5FU, FIG. 4-6
Protocol: In the chemotherapy experiments 5-fluorouracil (5FU) at 150 mg/kg was dissolved in saline and injected intraperitoneally (on day 0). The mice were treated with 4F-benzoyl-TN14003 (5 mg/Kg) for 5 days or with TPO (0.5 μg/mouse) for 3 days before treatment with 5FU. 4F-benzoyl-TN14003 treated mice were further treated daily with 4F-benzoyl-TN14003 (5 mg/Kg) one day after 5FU administration and the treatment was continued until the end of the experiment. Blood samples were collected 1 hr following 4F-benzoyl-TN14003 administration or control (PBS) injection]; total blood counts were tested by American Medical Laboratories, Israel. In some experiments, G-CSF was s.c. injected daily, one day after 5FU administration until the end of the experiment, at final concentration of 5 μg/mouse in total volume of 0.2 ml.
The platelet modulating effects were then examined in a chemotherapy-induced thrombocytopenia model in mice. In these experiments, 5-fluorouracil (“5FU”) at 150 mg/kg dissolved in saline was injected intraperitoneally to all mice (on day 0). Some of the mice were further treated with 4F-benzoyl-TN14003 (5 mg/Kg, once daily S.C. injections) for 5 days before treatment with 5FU, and Mice were further treated daily with 4F-benzoyl-TN14003 (5 mg/Kg) one day after 5FU and the treatment was continued until the end of the experiment. Blood samples were collected 1 hr following administration of 4F-benzoyl-TN14003 or control (PBS) injection. […] In FIG. 4, diamonds represent control (PBS treated) mice; open squares represent 4F-benzoyl-TN14003 treated mice.
Next, the effect of the peptide on mice treated with 5FU with or without G-CSF was examined. G-CSF administration (as daily S.C. injections, 5 μg/mouse) was initiated one day after 5FU treatment and continued until the end of the experiment. 5FU and 4F-benzoyl-TN14003 administration and blood sample collection were as specified above for FIG. 4. […] In FIG. 5, diamonds represent control (PBS treated) mice; open squares represent 4F-benzoyl-TN14003 treated mice; triangles represent G-CSF treated mice; and crosses represent mice treated with G-CSF and 4F-benzoyl-TN14003.
The activity of the peptide in the chemotherapy-induced thrombocytopenia model was then compared to that of TPO. In the TPO group, mice were treated with a single dose of TPO (0.5 μg/mouse) for 3 days before treatment with 5FU. 5FU and 4F-benzoyl-TN14003 administration and blood sample collection were as specified above for FIG. 4. […] In FIG. 6, diamonds represent control (PBS treated) mice; open squares represent 4F-benzoyl-TN14003 treated mice; and triangles represent TPO treated mice.

[4] = system: blood platelets; assay: Clinical study: single dose in Multiple Myeloma patients receiving Cyclophosphamide and G-CSF, blood platelet levels; assay type: in vivo, human
Protocol: A Phase […], non-Randomized, Open Label, Single Dose, Dose-Escalation, Safety Study of 4F-benzoyl-TN14003 was conducted in patients with Multiple Myeloma (MM) receiving G-CSF for inducing mobilization of progenitor stem cells from the Bone Marrow to the peripheral blood.
All eligible patients received, in an ambulatory setting, as part of their planned therapy: Cyclophosphamide—(the generic name for Cytoxan, Neosar), 4 gr/m^2 according to the accepted MM practice. G-CSF (neupogen) was initiated 5 days later and continued until the end of stem cell collection, administered SC at 5 μg/kg per day every day after 18:00. Monitoring the WBC and platelets was done after 7 and 10 days, and until stem cell collection. Stem cell collection was performed according to the protocol of WBC over 1,000 cells.
4F-benzoyl-TN14003 was injected after 10 days, as a single dose of 30, 100, 300 or 900 μg/Kg. The follow-up post injection included counting WBC and platelets levels at points of 30 min, 1 hr, 2 hr, 4 hr, 8 hr, 24 hr.
MM patients undergoing chemotherapy with Cyclophosphamide, received G-CSF according to a clinical protocol for inducing HPC mobilization for subsequent harvesting and transplantation. 10 days after Cyclophosphamide and G-CSF treatment, the patients received 4F-benzoyl-TN14003 injected at a dose of 0.9 mg/kg. […]

Row | Molecule | Blood platelet levels after a single injection ([1]; 5 mg/kg s.c., once daily or divided b.i.d., measured 1, 2 or 3 days later, FIG. 2) | Blood platelet levels in male and female mice ([1]; 5 mg/kg, measured 3 days post administration, FIG. 3) | Platelets (×10^3) [1] | Effect on TPO activity in enhancing platelets levels ([1]; combination with TPO, mice, FIG. 1) | Potency relative to TPO in stimulating production of platelets ([1]; healthy C57B1 mice) | % increase (platelet counts) [1] | Colonies (HPC counts, colony forming cells in bone marrow) [2] | Levels of platelets in blood before and after 5FU [3] | Platelet levels after 10 days of administration, compared with TPO and control ([3]; 5FU model, FIG. 6) | Potency relative to TPO in enhancing platelet levels and reducing chemotherapy-induced thrombocytopenia ([3]; thrombocytopenia induced by chemotherapy) | Time after administration at which platelet increase could be detected ([4]; 0.9 mg/kg single injection, MM patients) | Number of platelets in the blood after single injection ([4]; 0.9 mg/kg, 10 days after Cyclophosphamide and G-CSF, still observed after 1, 2, 4 or 8 hours, FIG. 7)
1 | 4F-benzoyl-Arg-Arg-Nal-Cys-Tyr-Cit-Lys-DLys-Pro-Tyr-Arg-Cit-Cys-Arg-NH2 [4F-benzoyl-TN14003] | significant elevation in blood platelet levels | enhanced blood platelet levels | 1551 ×10^3 | potentiates the activity of TPO in enhancing platelets levels in vivo | as potent as TPO | 32% | 148.2 | enhanced the levels of platelets in blood before and after treatment with 5FU; also recorded: elevated blood platelet levels before or after 5FU administration | higher in 4F-benzoyl-TN14003-treated mice than in TPO-treated mice or control mice | more potent than TPO | 30 min | immediate increase in the number of platelets in the blood
2 | Thrombopoietin [TPO] |  |  | 1556 ×10^3 |  |  | 32% | 150.2 | elevated blood platelet levels before or after 5FU administration |  |  |  | 
3 | granulocyte-colony stimulating factor (protein, UniProt P09919 31-207, looked up, granulocyte-colony stimulating factor, s.c. injected daily at 5 μg/mouse) Granulocyte …: TPLGPASSLPQSFLLKCLEQVRKIQGDGAALQEKLVSECATYKLCHPEELVLLGHSLGIPWAPLSSCPSQALQLAGCLSQLHSGLFLYQGLLQALEGISPELGPTLDTLQLDVADFATTIWQQMEELGMAPALQPTQGAMPAFASAFQRRAGGVLVASHLQSFLEVSYRVLRHLAQP |  |  |  |  |  |  |  | no effect on blood platelet levels; also recorded: had no effect on platelet levels |  |  |  | 
